Results: US11197881B2 (CALIFORNIA INSTITUTE OF TECHNOLOGY, priority 2016, dated 2021)
“Also recorded” adds a separate entry of the source.

What was measured:
[1] = test system: mouse lymphatic fibroblast (MLF) cells; conditions: 1 uM, FIG. 7E
Protocol: With reference to FIG. 7E, MLF cells having a silenced X chromosome were assayed for reactivation of the Gpc4 gene after incubation with SAHA at 2 uM, RGFP966 at 3 uM, RG2833 (RGFP109) at 300 nM, PCI-24781 (Abexinostat) at 300 nM, CUDC-101 at 400 nM, Resminostat at 100 nM, Mocetinostat (MGCD0103) at 10 uM, HPOB (4-[(hydroxyamino)carbonyl]-N-(2-hydroxyethyl)-N-phenyl-benzeneacetamide) at 5 uM, Entinostat (MS0275) at 2 uM, Droxinostat at 20 uM, 4SC-202 at 2 uM, Trichostatin A (TSA) at 5 uM, Rocilinostat (ACY-1215) at 100 nM, Quisinostat (JNJ-26481585) at 100 nM, or Pracinostat (SB939) at 1 uM.
5,000 Mouse MLF cells were plated on a poly-D-lysine (Sigma) and 0.2% gelatin (Sigma)-coated #1.5 coverslip placed into wells of a 24-well plate containing HEK media (DMEM, 10% Gemini Benchmark FBS, 1×L-glutamine, 1× sodium pyruvate, 1×NEAA, lx Pen/Strep; Life Technologies unless otherwise indicated). After 16 hours, inhibitors were added into the media and incubated the cells for 48 hours. Unless, otherwise indicated, the inhibitors and the concentration used were: 5-Azacytidine (6 μM; Sigma, A2385), 5-Aza-2′-deoxycytidine (0.3 μM; Sigma, A3656), RG 108 (200 μM; Abcam, ab141013), Trichostatin A (5 μM; Sigma, T8552), and Scriptaid (100 nM; Sigma, S7817).

[2] = test system: human iPS-derived neurons; test: X chromosome reactivation (PGK1 and MeCP2 mRNA staining) in human iPS-derived neurons having a silenced X chromosome; type: cell-based; conditions: simultaneous treatment with DNMT1 inhibitor 5-aza-2'-dc
From the text: FIG. 7K is a graph quantifying the expression level of MeCP2 mRNA in human iPSC-derived neurons having a silenced X chromosome after simultaneous treatment with the DNMT1 inhibitor (5-aza-2-dc) and the HDAC inhibitor SAHA for 7 days for a population of 50 cells, with the relative expression calculated by normalizing the neurons (two spots of active PGK1 loci) to non-reactivated (treated) neurons (one spot of active PGK1 locus), according to embodiments of the present invention.
(§1) Cells were stained for target mRNAs (e.g., X-linked Gpc4 mRNA, X-linked MeCP2 mRNA, or as indicated) and siRNA-targeted mRNA by FISH and imaged. Images were then analyzed using Matlab R2013b (described below). In the case of siRNA targeting, cells were selected if the copy number of the targeted mRNA was less than 30% of the level of the no siRNA treated cells and if they induced Xist expression. Within these cells, the copy number of target mRNAs were quantified using a peak finding method (described below) and compared across conditions. The mRNA levels were quantified for 50 individual cells.
The number of active X chromosomes was determined by RNA FISH with probes against the intronic region of Pgk1/PGK1 RNA using smFISH. […] Once regional maxima were identified, the number of spots was counted for each cell. […]

human fibroblast cells = test: X chromosome reactivation (active PGK1 loci, MeCP2 mRNA) in human fibroblast cells having a silenced X chromosome; type: cell-based; conditions: for percentage of reactivated human fibroblasts (active PGK1 loci) with treatment time: simultaneous treatment with 5-aza-2'-dc, 48 h, 72 h, 7 days, FIG. 7F; for activation of the silenced X chromosome: simultaneous treatment with DNMT1 inhibitor 5-aza-2'-dc, human fibroblast cells
Protocol: (§2) FIG. 7F is a graph of the percentage of reactivated cells (measured as the number of active phosphoglycerate kinase 1 (PGK1) loci for a population of 50 human fibroblast cells having a silenced X chromosome after the simultaneous treatment of DMSO (as a control), the DNMT1 inhibitor (5-aza-2-dc) and the HDAC inhibitor SAHA or RGFP966 for 48 hours (h), 72 hours, and 7 days as indicated, with the number of active PGK1 loci greater than 2 shown in grey, the number of PGK1 loci equal to 2 shown in orange, and the number of PGK1 loci equal to 1 shown in blue, according to embodiments of the present invention.
FIG. 7G is a graph quantifying the expression level of MeCP2 mRNA (relative to control) of reactivated human fibroblast cells having a silenced X chromosome after simultaneous treatment with DMSO (control), the DNMT1 inhibitor (5-aza-2-dc) and the HDAC inhibitor SAHA or RGFP966 for 7 days for a population of 50 cells, according to embodiments of the present invention.
as §1
The number of active X chromosomes was determined by RNA FISH with probes against the intronic region of Pgk1/PGK1 RNA using smFISH. The spots were then identified using a 2D peak finding algorithm that identifies local maximal signals within the cell. Once regional maxima were identified, the number of spots was counted for each cell. Cells were selected in the G1 phase of the cell cycle by co-immunostaining the cells with Cyclin E antibodies (Abcam; ab33911 for mouse cells; ab32103 for human cells) and selecting Cyclin E positive cells.

[3] = test system: mouse post-mitotic neurons; test: X chromosome reactivation (active PGK1 loci, MeCP2 mRNA) in mouse post-mitotic neurons having a silenced X chromosome; type: cell-based; conditions: simultaneous treatment with DNMT1 inhibitor 5-aza-2'-dc
Protocol: as §2, with “7H” for “7F”, “mouse post-mitotic neuronal” for “human fibroblast”
FIG. 7I is a graph quantifying the expression level of MeCP2 mRNA in mouse post-mitotic neurons having a silenced X chromosome after simultaneous treatment with DMSO (control), the DNMT1 inhibitor (5-aza-2-dc) and the HDAC inhibitor SAHA or RGFP966 for 7 days for a population of 50 cells, with the relative expression calculated by normalizing reactivated female post-mitotic neurons to male post-mitotic neurons, according to embodiments of the present invention.
Cells were stained for target mRNAs (e.g., X-linked Gpc4 mRNA, X-linked MeCP2 mRNA, or as indicated) and siRNA-targeted mRNA by FISH and imaged. Images were then analyzed using Matlab R2013b (described below). […] The mRNA levels were quantified for 50 individual cells. […]

[4] = test system: mouse lymphatic fibroblast (MLF) cells; test: X-chromosome reactivation assay (single molecule RNA FISH of X-linked mRNA) in MLF cells having silenced X genes; type: cell-based; conditions: for reactivation of silenced X-chromosome gene Gpc4 (Gpc4 mRNA) compared with Scriptaid alone: in combination with one of the DNMT1 inhibitors 5-aza, 5-aza-2'-dc, RG108 or SGI-1027, FIGS. 7A-7B
Protocol: Coverslips from siRNA transfection or inhibitor treatment were fixed in Histochoice (Sigma) for 10 min, washed thoroughly in PBS, and dehydrated in ethanol for storage until FISH staining. Single molecule RNA Fluorescence in situ hybridization (FISH) experiments were done using QuantiGene ViewRNA ISH Cell Assay (Affymetrix) and QuantiGene ViewRNA ISH Cell 740 Module (Affymetrix) according to manufacturer's protocol. Specifically, cells fixed on coverslips were first permeabilized with Detergent Solution QC at room temperature for 5 min, and then incubated with desired mixture of probe set (Affymetrix) in Probe Set Diluent QF at 40° C. for 3 h, followed by incubated with PreAmplifier Mix at 40° C. for 30 min, Amplifier Mix at 40° C. for 30 min, and Label Probe Mix at 40° C. for 30 min sequentially. For DAPI staining, coverslips were incubated in 30 nM DAPI in PBS at room temperature for 15-20 min. Probe sets and conjugated fluorophores (excitation wavelengths) for FISH were TYPE 4-GPC4, MECP2, SMC1A (488 nm), TYPE 10-ATRX (740 nm), and TYPE 6-EMD (650 nm). Cells were stained for target mRNAs (e.g., X-linked Gpc4 mRNA, X-linked MeCP2 mRNA, or as indicated) and siRNA-targeted mRNA by FISH and imaged. Images were then analyzed using Matlab R2013b (described below). In the case of siRNA targeting, cells were selected if the copy number of the targeted mRNA was less than 30% of the level of the no siRNA treated cells and if they induced Xist expression. Within these cells, the copy number of target mRNAs were quantified using a peak finding method (described below) and compared across conditions. The mRNA levels were quantified for 50 individual cells. All image analysis was carried out using Matlab (version R2013b) utilizing built-in functions from the Image Processing toolbox. […] Once regional maxima were identified, the number of spots was counted for each cell. The percentage of X-reactivation is calculated by normalizing the average number of spots of each condition to the average number of spots in untreated cells, and subtracting the value by 1.

| Structure (SMILES) | activation of the silenced X chromosome [2] | percentage of reactivated human fibroblasts (active PGK1 loci) with treatment time (human fibroblast cells) | activation of the silenced X chromosome (human fibroblast cells) | activation of the silenced X chromosome [3] | reactivation of silenced X-chromosome gene Gpc4 (Gpc4 mRNA) compared with Scriptaid alone [4] | also measured |
| --- | --- | --- | --- | --- | --- | --- |
| CCCCc1nc2cc(/C=C/C(=O)NO)ccc2n1CCN(CC)CC [Pracinostat] | – | – | – | – | – | cytotoxicity (cell death) [1]: cytotoxic, causing cell death |
| Nc1cc(F)ccc1NC(=O)/C=C/c1cnn(C/C=C/c2ccccc2)c1 [RGFP966] | activation of the X chromosome | increase in reactivation | activation (or re-activation) of the X chromosome | activation of the X chromosome | – | – |
| O=C(CCCCCCC(=O)Nc1ccccc1)NO [SAHA] | activation of the X chromosome | increase in reactivation | activation (or re-activation) of the X chromosome | activation of the X chromosome | – | – |
| O=C(CCCCCN1C(=O)c2cccc3cccc(c23)C1=O)NO [Scriptaid] | – | – | – | – | reactivated to a higher level of reactivation | reactivation of the Xist-dependent silent Gpc4 gene as measured by levels of Gpc4 mRNA ([4]; HDAC inhibitor alone, FIGS. 7A-7B): expression of Gpc4; also recorded: reactivation of the Xist-dependent silent Gpc4 gene |
| CC(/C=C/C(=O)NO)=C\[C@@H](C)C(=O)c1ccc(N(C)C)cc1 [Trichostatin A] | – | – | – | – | reactivated to a higher level of reactivation | – |
